Laboratory results from patent US4331670A (priority 1979, dated 1982).

Tests used:
[1] = system: Rhizoctonia solani; assay: whole plant or invertebrate; type: in vivo, Rhizoctonia solani (rice plant, Chukyo Asahi); settings: in Oryza sativa, 120 h, read-out: Preventive value
[2] = system: Callosobruchus chinensis; assay: Test 7: mortality of adults of Callosobruchus chinensis on film in Petri-dish; type: in vivo; settings: 400 μg per Petri-dish of 9 cm, 25° C., 24 hours, read-out: Percent mortality
Experimental: Each active ingredient was dissolved in acetone to prepare each solution having the specific concentration. 1 Ml. of the solution (400 μg. of each active ingredient) was uniformly adhered on the inner bottom surface of Petri-dish having a diameter of 9 cm to form a film. In the dish, 15 of adults of Callosobruchus chinensis were charged and the dish was covered with a cap and kept in a constant temperature chamber at 25° C. for 24 hours. Each percent mortality was calculated as that of Test 6.

[3] = system: Pyricularia orzae; assay: whole plant or invertebrate; type: in vivo, Pyricularia orzae (rice plant, Chukyo Asahi); settings: in Oryza sativa, 120 h, read-out: Protective value
[4] = system: Plutella xylostella; assay: Test 11: mortality of larvae of Plutella xylostella on treated cabbage leaf; type: in vivo; settings: foliar, 192 h, leaf dipped, emulsifiable concentrate Composition No. 3, eight days, read-out: Percent mortality
Excerpt: Each emulsifiable concentrate of each active ingredient as Composition No. 3 was dispersed in water at a concentration of 800 ppm. Each leaf of cabbage was dipped into each emulsion for about 10 seconds and taken up and dried in air.
A wet filter paper was put in each Petri dish (diameter of 9 cm), and each treated leaf was put on the filter paper. Larvae of Plutella xylostella at 2nd to 3rd instar were charged and the dish was covered with a cap and kept in a constant temperature chamber with lighting at 28° C. Eight days after the charge, mortality was measured and each percent mortality was calculated.

[5] = system: Sphaerotheca fuliginea; assay: whole plant or invertebrate; type: in vivo, Sphaerotheca fuliginea (cucumber plant, Suyo); settings: Podosphaera fuliginea, in Cucumis sativus, 240 h, read-out: Protective value
[6] = system: Tetranychus telarius (L); assay: Test 6: mortality of larvae and adults of Tetranychus telarius on kidney bean leaf; type: in vivo; settings: foliar, 72 h, leaf dipped, wettable powder of Composition No. 5, three days after treatment, read-out: Percent mortality
Experimental: Young seedling of kidney bean treated to cut off leaves except one primordial leaf was transplanted in a cup and about 30 of larvae and adults of Tetranychus telarius (L) were inoculated on the primordial leaf. This was dipped for 10 seconds in each solution obtained by diluting each wettable powder of Composition No. 5 containing each active ingredient with water at the concentration of 800 ppm and was dried in air and was kept in a constant temperature chamber with lighting at 28° C. Three days after the treatment, mortality was measured and each percent mortality was calculated as follows. [formula]

[7] = system: Botrytis cinerea; assay: Test 9: protective value on cucumber inoculated with Botrytis cinerea; type: in vivo, Botrytis cinerea (cucumber plant, Suyo); settings: 72 h; for pest or weed control at 250 ppm: 10 ml sprayed, lesion length three days after inoculation
Experimental: In each unglazed pot having a diameter of 9 cm, cucumber plant (Suyo) was cultured. At one leaf stage, 10 ml. of each solution of each active ingredient having a concentration of 250 ppm was sprayed by a spray gun. After maintaining the pot in a green-house at 24° to 25° C. for one day, a disc (punched agar disc) obtained by culturing Botrytis cinerea on a potato-glucose-agar medium (PDA medium) was put on the leaf of cucumber to inoculate them. Three days after the inoculation, lengths of lesions were measured and each protective value was calculated as Test 2.
In accordance with the test, except the concentration of the active ingredient was decreased, the comparative tests of Compound No. 7 and Reference compound were carried out.

Row | SMILES | pest or weed control at 100 ppm [1] [%] | mortality at 400 µg/dish [2] [%] | pest or weed control at 100 ppm [3] [%] | mortality at 800 ppm [4] [%] | mortality at 800 ppm [6] [%] | also measured
1 | O=[N+]([O-])c1cc(C(F)(F)F)cc([N+](=O)[O-])c1Nc1ncc(C(F)(F)F)cc1Cl [Compound No. 2] | 100 | 100 | 100 |  |  | 
2 | O=[N+]([O-])c1cc([N+](=O)[O-])c(Nc2ncc(Cl)cc2Br)c(C(F)(F)F)c1 [Compound No. 62] | 100 | 100 |  | 100 |  | pest or weed control at 100 ppm [5]: 100%
3 | O=[N+]([O-])c1ccc(Nc2c(Cl)c(F)nc(F)c2Cl)c(C(F)(F)F)c1 [Reference compound, N-(2,6-difluoro-3,5-dichloro-4-pyridyl)-N-(4-nitro-2-trifluoromethylphenyl)amine, reference compound] |  |  |  | 0 | 40 | pest or weed control at 12.5 ppm [3]: 0%; pest or weed control at 25 ppm [3]: 0%; pest or weed control at 62.5 ppm ([7]; 62.5 ppm): 0%
4 | O=[N+]([O-])c1cc(C(F)(F)F)cc([N+](=O)[O-])c1Nc1c(Cl)cncc1Cl [compound 15, N-(3,5-dichloro-4-pyridyl)-2,6-dinitro-4-trifluoromethylaniline] | 100 |  | 100 | 100 | 100 | pest or weed control at 500 ppm [5]: 100%
5 | O=[N+]([O-])c1cc(C(F)(F)F)c(Cl)c([N+](=O)[O-])c1Nc1ncc(C(F)(F)F)cc1Br [compound 21] |  |  | 100 |  |  | pest or weed control at 500 ppm [5]: 100%; pest or weed control at 250 ppm [7]: 100%
6 | O=[N+]([O-])c1cc(C(F)(F)F)cc([N+](=O)[O-])c1Nc1ncc(C(F)(F)F)cc1Br [compound 22] |  |  | 100 |  | 100 | pest or weed control at 500 ppm [5]: 100%; pest or weed control at 250 ppm [7]: 100%
7 | O=[N+]([O-])c1cc(C(F)(F)F)cc([N+](=O)[O-])c1Nc1ncc(Cl)cc1C(F)(F)F [compound 27] |  |  | 100 |  | 100 | 
8 | O=[N+]([O-])c1cc(C(F)(F)F)cc([N+](=O)[O-])c1Nc1ncc(Br)cc1C(F)(F)F [compound 28] |  |  | 100 |  | 100 | 
9 | O=[N+]([O-])c1cc(C(F)(F)F)c(Cl)c([N+](=O)[O-])c1Nc1ncc(Cl)cc1C(F)(F)F [compound 29] | 100 |  | 100 | 100 | 100 | pest or weed control at 250 ppm [7]: 100%
10 | O=[N+]([O-])c1cc(C(F)(F)F)c(Cl)c([N+](=O)[O-])c1Nc1nc(Cl)c(Br)cc1C(F)(F)F [compound 31] | 90 |  |  |  |  | pest or weed control at 500 ppm [5]: 100%
11 | O=[N+]([O-])c1cc(C(F)(F)F)cc([N+](=O)[O-])c1Nc1nc(Cl)c(C(F)(F)F)cc1Br [compound 32] | 100 |  | 100 |  |  | pest or weed control at 500 ppm [5]: 100%
12 | O=[N+]([O-])c1cc(C(F)(F)F)c(Cl)c([N+](=O)[O-])c1Nc1ncccc1C(F)(F)F [compound 36] | 92 |  | 100 |  |  | pest or weed control at 250 ppm [7]: 96%
13 | O=[N+]([O-])c1cc(C(F)(F)F)cc([N+](=O)[O-])c1Nc1ncccc1C(F)(F)F [compound 37] | 100 |  | 100 |  | 100 | pest or weed control at 250 ppm [7]: 93%
14 | COc1c(C(F)(F)F)cc([N+](=O)[O-])c(Nc2ncc(C(F)(F)F)cc2Cl)c1[N+](=O)[O-] [compound 39] | 100 |  | 100 |  | 100 | 
15 | CCOc1c(C(F)(F)F)cc([N+](=O)[O-])c(Nc2ncc(C(F)(F)F)cc2Cl)c1[N+](=O)[O-] [compound 40, N-(3-chloro-5-trifluoromethyl-2-pyridyl)-2,6-dinitro-3-ethoxy-4-trifluoromethylaniline] | 100 |  | 100 | 100 | 100 | 
16 | CCCOc1c(C(F)(F)F)cc([N+](=O)[O-])c(Nc2ncc(C(F)(F)F)cc2Cl)c1[N+](=O)[O-] [compound 41] | 95 |  | 95 | 100 | 100 | 
17 | O=[N+]([O-])c1cc(C(F)(F)F)c(Oc2ccc(O)cc2)c([N+](=O)[O-])c1Nc1ncc(C(F)(F)F)cc1Cl [compound 49] | 100 |  |  |  | 100 | pest or weed control at 250 ppm [7]: 100%
18 | O=[N+]([O-])c1cc([N+](=O)[O-])c(Nc2ccc(Cl)cn2)c(C(F)(F)F)c1 [compound 52] |  | 100 |  | 100 |  | 
19 | O=[N+]([O-])c1cc([N+](=O)[O-])c(Nc2ccc(Br)cn2)c(C(F)(F)F)c1 [compound 54] | 90 | 100 |  |  |  | pest or weed control at 50 ppm [3]: 100%
20 | O=[N+]([O-])c1cc([N+](=O)[O-])c(Nc2ncc(Cl)cc2Cl)c(C(F)(F)F)c1 [compound 60, N-(3,5-dichloro-2-pyridyl)-2,4-dinitro-6-trifluoromethylaniline] | 100 | 100 |  | 100 |  | pest or weed control at 50 ppm [3]: 100%
21 | O=[N+]([O-])c1cc([N+](=O)[O-])c(Nc2ncc(Br)cc2Br)c(C(F)(F)F)c1 [compound 61] | 100 | 100 |  | 100 |  | pest or weed control at 50 ppm [3]: 100%
22 | O=[N+]([O-])c1cc([N+](=O)[O-])c(Nc2ncc(Br)cc2Cl)c(C(F)(F)F)c1 [compound 63] | 100 | 100 |  | 100 |  | 
23 | O=[N+]([O-])c1cc([N+](=O)[O-])c(Nc2ncc(C(F)(F)F)cc2Cl)c(C(F)(F)F)c1 [compound 65] | 100 | 100 |  | 100 |  | pest or weed control at 50 ppm [3]: 100%
24 | O=[N+]([O-])c1cc([N+](=O)[O-])c(Nc2nc(Cl)ccc2C(F)(F)F)c(C(F)(F)F)c1 [compound 66, N-(2-chloro-5-trifluoromethyl-6-pyridyl)-2,4-dinitro-6-trifluoromethylaniline] |  |  |  | 100 |  | pest or weed control at 100 ppm [5]: 100%
25 | O=[N+]([O-])c1cc([N+](=O)[O-])c(Nc2ccc(C(F)(F)F)c(Cl)n2)c(C(F)(F)F)c1 [compound 70] |  | 100 |  | 100 |  | 
26 | Cc1nc(Nc2c([N+](=O)[O-])cc([N+](=O)[O-])cc2C(F)(F)F)c(Cl)c(C)c1Cl [compound 77, N-(3,5-dichloro-4,6-dimethyl-2-pyridyl)-2,4-dinitro-6-trifluoromethylaniline] |  | 100 |  | 100 |  | 
27 | O=[N+]([O-])c1cc([N+](=O)[O-])c(Nc2ncccc2C(F)(F)F)c(C(F)(F)F)c1 [compound 81] |  | 100 |  | 100 |  | pest or weed control at 50 ppm [3]: 100%
28 | O=[N+]([O-])c1cc(C(F)(F)F)cc(C(F)(F)F)c1Nc1ncc(C(F)(F)F)cc1Cl [compound 89] |  |  |  |  | 100 | 
29 | O=[N+]([O-])c1cc(C(F)(F)F)cc(C(F)(F)F)c1Nc1ncc(Cl)cc1Cl [compound 90] |  |  |  |  | 100 | 
